Experimental data: ChEMBL document CHEMBL6096739, “The Myxobacterial Genus Archangium: A Prolific and Underexploited Source of Bioactive Secondary Metabolites” (J Med Chem, 2025)
Values after ≈ are worked out from the molar mass of the structure shown. Numbered stars: 1 amine (or outer) side, 2 acyl side, 3 side chain; on linkers, the order of the positions; unused ones are H or OH. Square brackets hold non-standard residues; d marks the D form. Peptide text beside a SMILES is read from it. X1 = COc1cccc2[nH]c(C)c(C[C@H](N[*:1])C(=O)[*:2])c12; dAla(ψthiazole) = C[C@@H](N[*:1])c1nc(C(=O)[*:2])cs1; Trp(4-OMe) = COc1cccc2[nH]cc(C[C@H](N)C(=O)O)c12; X2 = O=C(c1csc([C@@H](CO)N[*:1])n1)[*:2]; GlyΨ(Thz) = O=C(c1csc(CN[*:1])n1)[*:2]; dAbu = CC[C@@H](N)C(=O)O; Dha = C=C(N)C(=O)O; Sar = CNCC(=O)O

Columns and labels:
Botrytis cinerea = assay: Antifungal activity against Botrytis cinerea; type: functional
[1] = test system: Globisporangium debaryanum; assay: Antifungal activity against Pythium debaryanum DSM 62946; type: functional
[2] = test system: Metschnikowia pulcherrima; assay: Antifungal activity against Metschnikowia pulcherrima DSM 70321; type: functional
U-937 = assay: Cytotoxicity activity against human U-937 cells assessed as reduction in cell viability measured after 24 hrs by CCK-8 assay; type: functional, cell-based
HCT-116 = assay: Cytotoxicity against human HCT-116 cells assessed as reduction in cell growth measured after 72 hrs by MTT assay; type: functional, cell-based; details: HCT-116, 72 h
[3] = Toxicity in po dosed rat assessed as lethal dose; type: organism-based; set-up: unit not given here; details: in vivo
Clostridium perfringens = assay: Antibacterial activity against Clostridium perfringens assessed as bacterial growth inhibition after 24 hrs by microdilution method; type: functional
[4] = Cytotoxicity against mouse L929 cells assessed reduction in cell viability incubated for 24 hrs by MTT assay; type: toxicity, cell-based
KB = assay: Cytotoxicity against human KB cells assessed as reduction in cell viability measured after 72 hrs by MTT assay; type: functional, cell-based
Pseudomonas aeruginosa = assay: Antibacterial activity against Pseudomonas aeruginosa ATCC 27853 assessed as bacterial growth inhibition; type: functional, organism-based

COCC(C)C1=NC(c2nc(/C=C/[C@H](OC)[C@@H](C)/C(=C\C(=O)OC)OC)cs2)CS1 (some centres not stated)
MIC (Botrytis cinerea): 0.04 µg/mL (≈ 0.088 µM) | MIC [1]: 0.0947 µM (≈ 0.0431 µg/mL) | MIC [2]: 0.04 µg/mL (≈ 0.088 µM)

CC[C@H](C)[C@H](NC(=O)[C@H]1CCCCN1C)C(=O)N(COC(=O)CC(C)C)[C@H](C[C@@H](OC(C)=O)c1nc(C(=O)N[C@@H](Cc2ccccc2)C[C@H](C)C(=O)O)cs1)C(C)C [TUBULYSIN D]
IC50 (U-937; Homo sapiens, U-937, 24 h): 0.005 nM | IC50 (HCT-116): 0.003 nM

O/N=C\c1ccnc2ccccc12
MIC [2]: < 1 µg/mL

C/C=C1/NC(=O)[C@@H]2CSC(=N2)[C@@H]2CCCN2C(=O)[C@@H](CC(C)C)NC(=O)[C@H](C)NC(=O)[C@@H](O)COC(=O)[C@H](C(C)C)N(C)C(=O)[C@H]([C@@H](C)O)NC(=O)[C@@H]2CCCCN2C1=O
LD50 [3]: 2.3

C=C/C=C(\C)[C@@H](O)CC[C@@H](C)/C=C/[C@@H]1CC[C@@H](C)C(=O)CC(=O)N[C@@H](C)CCC(=O)[C@@H](C)[C@H](O)[C@@H](C)/C=C(\C)C(=O)O1
MIC (Clostridium perfringens): 0.78 µg/mL (≈ 1.33 µM)

COC(=O)/C=C(/OC)[C@H](C)[C@H](/C=C/c1csc(-c2csc(C3(C)CO3)n2)n1)OC (some centres not stated)
MIC (Botrytis cinerea): 0.04 µg/mL (≈ 0.0916 µM) | MIC [1]: 0.0947 µM (≈ 0.0413 µg/mL) | MIC [2]: 0.04 µg/mL (≈ 0.0916 µM)

C=C(NC(=O)/C(C)=C/C=C\CCCCCC(C)C)C(=O)N/C(=C\OC)C(=O)OC
IC50 at 24 h [4]: 3100 nM

CC1=C(/C=C/C=C\C=C\[C@@H](C)[C@@H](O)/C(C)=C/CC(C)C)OC(C)(O)C1=O (some centres not stated)
IC50 at 24 h [4]: 1000 nM

O=C(CO)c1c[nH]c2ccccc12
MIC [2]: < 1 µg/mL

COC(=O)/C=C(/OC)[C@H](C)[C@H](/C=C/c1csc(C2CSC(C3(C)CO3)=N2)n1)OC (some centres not stated)
MIC (Botrytis cinerea): 0.04 µg/mL (≈ 0.0912 µM) | MIC [1]: 0.0947 µM (≈ 0.0415 µg/mL) | MIC [2]: 0.04 µg/mL (≈ 0.0912 µM)

C=C1NC(=O)[C@@H](C)NC(=O)CNC(=O)[C@H](Cc2c[nH]c3cccc(OC)c23)NC(=O)[C@H](Cc2c[nH]c3ccccc23)NC(=O)c2csc(n2)[C@@H](C)NC(=O)CN(C)C1=O (cyclo(W[Trp(4-OMe)]G[dA][Dha][Sar][dAla(ψthiazole)]))
IC50 (KB): 5 nM

COC(=O)/C=C(/OC)[C@H](C)[C@H](/C=C/c1csc(C2CSC(C(C)C)=N2)n1)OC (some centres not stated)
MIC (Botrytis cinerea): 0.04 µg/mL (≈ 0.0942 µM) | MIC [1]: 0.0947 µM (≈ 0.0402 µg/mL) | MIC [2]: 0.04 µg/mL (≈ 0.0942 µM)

CC[C@H](C)[C@H](NC(=O)[C@H]1CCCCN1C)C(=O)N(COC(C)=O)[C@H](C[C@@H](OC(C)=O)c1nc(C(=O)N[C@@H](Cc2ccc(O)cc2)C[C@H](C)C(=O)O)cs1)C(C)C
IC50 (U-937; Homo sapiens, U-937, 24 h): 0.005 nM

CC[C@H](C)[C@H](NC(=O)[C@H]1CCCCN1C)C(=O)N(COC(C)=O)[C@H](C[C@@H](OC(C)=O)c1nc(C(=O)N[C@@H](Cc2ccccc2)C[C@H](C)C(=O)O)cs1)C(C)C
IC50 (U-937; Homo sapiens, U-937, 24 h): 0.005 nM

CCCC(=O)OCN(C(=O)[C@@H](NC(=O)[C@H]1CCCCN1C)[C@@H](C)CC)[C@H](C[C@@H](OC(C)=O)c1nc(C(=O)N[C@@H](Cc2ccc(O)cc2)C[C@H](C)C(=O)O)cs1)C(C)C [TUBULYSIN B]
IC50 (U-937; Homo sapiens, U-937, 24 h): 0.005 nM

C/C=C1\NC(=O)[C@H]2CSC(=N2)[C@@H]2C[C@@H](C)N2C(=O)[C@@H](CC(C)C)NC(=O)[C@H](C)NC(=O)[C@@H](O)COC(=O)[C@H](C(C)C)N(C)C(=O)[C@H]([C@@H](C)O)NC(=O)[C@@H]2CCCN2C1=O
LD50 [3]: 2.3

C/C1=C\C=C=CCCC/C=C/[C@H]2O[C@@H](C(=O)O[C@H](C)[C@H]1O)[C@@H](O)[C@@H]2O
MIC (Clostridium perfringens): 2.5 µg/mL (≈ 7.13 µM)

O=Cc1ccnc2ccccc12
MIC [2]: < 1 µg/mL

CCCC(=O)OCN(C(=O)[C@@H](NC(=O)[C@H]1CCCCN1C)[C@@H](C)CC)[C@H](C[C@@H](OC(C)=O)c1nc(C(=O)N[C@@H](Cc2ccccc2)C[C@H](C)C(=O)O)cs1)C(C)C
IC50 (U-937; Homo sapiens, U-937, 24 h): 0.005 nM

C/C=C1\NC(=O)[C@H]2CSC(=N2)[C@@H]2C[C@@H](C)N2C(=O)[C@@H](CC(C)C)NC(=O)[C@H](C)NC(=O)[C@@H](O)COC(=O)[C@H](C(C)C)N(C)C(=O)[C@H]([C@@H](C)O)NC(=O)[C@@H]2CCCCN2C1=O
LD50 [3]: 2.3

CC[C@H](C)[C@H](NC(=O)[C@H]1CCCCN1C)C(=O)N(COC(=O)CC(C)C)[C@H](C[C@@H](OC(C)=O)c1nc(C(=O)N[C@@H](Cc2ccc(O)cc2)C[C@H](C)C(=O)O)cs1)C(C)C [TUBULYSIN-A]
IC50 (U-937; u-937): 0.005 nM

O=C(O)c1ccnc2ccccc12
MIC [2]: < 1 µg/mL

C=C(C)C1=NC(c2nc(/C=C/[C@H](OC)[C@@H](C)/C(=C\C(=O)OC)OC)cs2)CS1 (some centres not stated)
MIC (Botrytis cinerea): 0.04 µg/mL (≈ 0.0947 µM) | MIC [1]: 0.0947 µM (≈ 0.04 µg/mL) | MIC [2]: 0.04 µg/mL (≈ 0.0947 µM)

CCC(=O)OCN(C(=O)[C@@H](NC(=O)[C@H]1CCCCN1C)[C@@H](C)CC)[C@H](C[C@@H](OC(C)=O)c1nc(C(=O)N[C@@H](Cc2ccccc2)C[C@H](C)C(=O)O)cs1)C(C)C
IC50 (U-937; Homo sapiens, U-937, 24 h): 0.005 nM

C=C1NC(=O)[C@@H](C)NC(=O)CNC(=O)[C@H](Cc2c[nH]c3cccc(OC)c23)NC(=O)[C@H](Cc2c[nH]c3ccccc23)NC(=O)c2csc(n2)CNC(=O)CN(C)C1=O (cyclo([Dha][Sar][GlyΨ(Thz)]W[Trp(4-OMe)]G[dA]))
IC50 (KB): 5 nM

COC(=O)/C=C(/OC)[C@H](C)[C@H](/C=C/c1csc(-c2csc(C(C)=O)n2)n1)OC
MIC (Botrytis cinerea): 0.04 µg/mL (≈ 0.0947 µM) | MIC [1]: 0.0947 µM (≈ 0.04 µg/mL) | MIC [2]: 0.04 µg/mL (≈ 0.0947 µM)

C=C1NC(=O)[C@@H](CC)NC(=O)CNC(=O)[C@H](Cc2c(C)[nH]c3cccc(OC)c23)NC(=O)[C@H](Cc2c[nH]c3ccccc23)NC(=O)c2csc(n2)[C@@H](C)NC(=O)CN(C)C1=O (cyclo(W[X1]G[dAbu][Dha][Sar][dAla(ψthiazole)]))
IC50 (KB): 5 nM

CCC(=O)OCN(C(=O)[C@@H](NC(=O)[C@H]1CCCCN1C)[C@@H](C)CC)[C@H](C[C@@H](OC(C)=O)c1nc(C(=O)N[C@@H](Cc2ccc(O)cc2)C[C@H](C)C(=O)O)cs1)C(C)C
IC50 (U-937; Homo sapiens, U-937, 24 h): 0.005 nM

C=C1NC(=O)[C@@H](C)NC(=O)CNC(=O)[C@H](Cc2c(C)[nH]c3cccc(OC)c23)NC(=O)[C@H](Cc2c[nH]c3ccccc23)NC(=O)c2csc(n2)[C@@H](C)NC(=O)CN(C)C1=O (cyclo(W[X1]G[dA][Dha][Sar][dAla(ψthiazole)]))
IC50 (KB): 5 nM

N#CCc1c[nH]c2ccccc12
MIC [2]: < 1 µg/mL

CC[C@H](C)[C@H](NC(=O)[C@H]1CCCCN1C)C(=O)N(COC(=O)C=C(C)C)[C@H](C[C@@H](OC(C)=O)c1nc(C(=O)N[C@@H](Cc2ccc(O)cc2)C[C@H](C)C(=O)O)cs1)C(C)C
IC50 (U-937; Homo sapiens, U-937, 24 h): 0.005 nM

CC1=C(C[C@H](O)/C=C\C=C\[C@@H](C)[C@@H](O)/C(C)=C/CC(C)C)OC(C)(O)C1=O (some centres not stated)
IC50 at 24 h [4]: 1000 nM

C=C(NC(=O)/C(C)=C/C=C\CCCCC(C)C)C(=O)N/C(=C\OC)C(=O)OC
IC50 at 24 h [4]: 3100 nM

OCc1ccnc2ccccc12
MIC [2]: < 1 µg/mL

C=C(C)c1nc(-c2nc(/C=C/[C@H](OC)[C@@H](C)/C(=C\C(=O)OC)OC)cs2)cs1
MIC (Botrytis cinerea): 0.04 µg/mL (≈ 0.0951 µM) | MIC [1]: 0.0947 µM (≈ 0.0398 µg/mL) | MIC [2]: 0.04 µg/mL (≈ 0.0951 µM)

C=C(NC(=O)/C(C)=C/C=C\CCCCCCC)C(=O)N/C(=C\OC)C(=O)OC
IC50 at 24 h [4]: 3100 nM

C=C1NC(=O)[C@@H](CC)NC(=O)CNC(=O)[C@H](Cc2c[nH]c3cccc(OC)c23)NC(=O)[C@H](Cc2c[nH]c3ccccc23)NC(=O)c2csc(n2)[C@@H](CO)NC(=O)CN(C)C1=O (cyclo([Dha][Sar][X2]W[Trp(4-OMe)]G[dAbu]))
IC50 (KB): 5 nM

C=C1NC(=O)[C@@H](C)NC(=O)CNC(=O)[C@H](Cc2c[nH]c3cccc(OC)c23)NC(=O)[C@H](Cc2c[nH]c3ccccc23)NC(=O)c2csc(n2)[C@@H](CO)NC(=O)CN(C)C1=O (cyclo([Dha][Sar][X2]W[Trp(4-OMe)]G[dA]))
IC50 (KB): 5 nM

O/N=C/Cc1c[nH]c2ccccc12
MIC [2]: < 1 µg/mL

C=C1NC(=O)[C@@H](CC)NC(=O)CNC(=O)[C@H](Cc2c[nH]c3cccc(OC)c23)NC(=O)[C@H](Cc2c[nH]c3ccccc23)NC(=O)c2csc(n2)[C@@H](C)NC(=O)CN(C)C1=O (cyclo([Dha][Sar][dAla(ψthiazole)]W[Trp(4-OMe)]G[dAbu]))
IC50 (Pseudomonas aeruginosa): 0.05 µg/mL (≈ 0.0596 µM) | IC50 (KB): 5 nM

C/C=C1/NC(=O)[C@@H]2CSC(=N2)[C@@H]2CCCN2C(=O)[C@@H](CC(C)C)NC(=O)[C@H](C)NC(=O)[C@@H](O)COC(=O)[C@H](C(C)C)N(C)C(=O)[C@H]([C@@H](C)O)NC(=O)[C@@H]2CCCN2C1=O
LD50 [3]: 2.3
